Key:
[1] = molecular target: T1, Cholesterol side-chain cleavage enzyme, mitochondrial (Bos taurus, UniProt P00189); test: Inhibition of bovine adrenal desmolase at 50 ug/mL; None; conditions: cattle; at 50 µg/mL
T1 sequence (P00189 whole entry): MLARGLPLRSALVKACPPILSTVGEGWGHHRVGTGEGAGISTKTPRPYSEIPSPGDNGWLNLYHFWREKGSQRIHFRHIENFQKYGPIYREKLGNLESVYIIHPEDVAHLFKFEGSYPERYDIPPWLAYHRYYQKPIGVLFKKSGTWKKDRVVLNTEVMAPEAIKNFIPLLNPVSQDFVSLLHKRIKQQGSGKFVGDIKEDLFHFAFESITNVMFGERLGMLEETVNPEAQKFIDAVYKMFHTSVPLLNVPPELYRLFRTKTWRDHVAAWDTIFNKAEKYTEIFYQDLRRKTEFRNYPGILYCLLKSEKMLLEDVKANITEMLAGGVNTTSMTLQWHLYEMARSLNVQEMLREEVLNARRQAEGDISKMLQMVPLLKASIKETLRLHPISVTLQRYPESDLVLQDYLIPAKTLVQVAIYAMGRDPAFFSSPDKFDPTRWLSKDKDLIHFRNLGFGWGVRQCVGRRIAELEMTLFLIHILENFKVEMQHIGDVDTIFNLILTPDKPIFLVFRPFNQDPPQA

Aromatase [2] = molecular target: T2, Aromatase (Homo sapiens, UniProt P11511); test: Inhibition of Cytochrome P450 19A1 at 20 ug/mL; None; conditions: at 20 µg/mL
T2 sequence (P11511 whole entry): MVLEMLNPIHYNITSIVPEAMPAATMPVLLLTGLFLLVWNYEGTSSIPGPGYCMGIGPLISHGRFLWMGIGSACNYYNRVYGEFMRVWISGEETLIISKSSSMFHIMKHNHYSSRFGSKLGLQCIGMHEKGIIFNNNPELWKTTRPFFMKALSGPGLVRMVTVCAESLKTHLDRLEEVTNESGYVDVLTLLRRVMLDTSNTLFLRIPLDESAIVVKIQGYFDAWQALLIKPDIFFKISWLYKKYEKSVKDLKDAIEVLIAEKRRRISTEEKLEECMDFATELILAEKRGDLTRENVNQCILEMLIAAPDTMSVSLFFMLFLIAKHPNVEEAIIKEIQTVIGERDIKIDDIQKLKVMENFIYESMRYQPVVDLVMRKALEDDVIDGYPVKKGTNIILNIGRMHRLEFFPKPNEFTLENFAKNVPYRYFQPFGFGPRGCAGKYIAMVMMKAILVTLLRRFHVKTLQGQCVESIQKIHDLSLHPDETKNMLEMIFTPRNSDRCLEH

Aromatase [3] = molecular target: T2, Aromatase; test: Inhibition of Cytochrome P450 19A1 at 20 ug/mL
[4] = molecular target: T3, Cytochrome P450 11A1 (desmolase, cholesterol side-chain cleavage enzyme) (Bos taurus, UniProt P00189); test: Inhibition of bovine adrenal desmolase cytochrome P450 11A1 at 50 ug/mL; conditions: cattle
T3 sequence (P00189 whole entry): T1 sequence (P00189 whole entry)

| Structure (SMILES) | Inhibition [1] | Inhibition (Aromatase [2]) | inhibition at 20 µg/mL (Aromatase [3]) [%] | inhibition at 50 ug/mL [4] [%] |
| --- | --- | --- | --- | --- |
| CCC1(c2cc[n+]([O-])cc2)CCC(=O)NC1=O (configuration not stated) | Not Active | Not Active | – | – |
| CCC1(c2c(F)c(F)nc(F)c2F)CCC(=O)NC1=O (configuration not stated) | Not Active | – | 25 | – |
| CCC1(c2ccncc2)CCC(=O)N(N)C1=O (configuration not stated) | – | – | 27 | 38 |
| CCC1(c2ccncc2)CCC(=O)NC1=O (configuration not stated) [ROGLETIMIDE] | Not Active | – | – | – |

Source: ChEMBL document CHEMBL1123108 (J Med Chem, 1985)
